These results are taken from patent publication US20250171438A1 (Agios Pharmaceuticals, Inc., priority 2022, published 2025).

Like-named read-outs stand apart in the source and are kept apart here.

The assay deals with T1, human PAH with the R408W mutation (Homo sapiens, UniProt P00439, R408W).
T1 construct: expressed in transfected cells
T1 sequence (P00439 1-452 R408W): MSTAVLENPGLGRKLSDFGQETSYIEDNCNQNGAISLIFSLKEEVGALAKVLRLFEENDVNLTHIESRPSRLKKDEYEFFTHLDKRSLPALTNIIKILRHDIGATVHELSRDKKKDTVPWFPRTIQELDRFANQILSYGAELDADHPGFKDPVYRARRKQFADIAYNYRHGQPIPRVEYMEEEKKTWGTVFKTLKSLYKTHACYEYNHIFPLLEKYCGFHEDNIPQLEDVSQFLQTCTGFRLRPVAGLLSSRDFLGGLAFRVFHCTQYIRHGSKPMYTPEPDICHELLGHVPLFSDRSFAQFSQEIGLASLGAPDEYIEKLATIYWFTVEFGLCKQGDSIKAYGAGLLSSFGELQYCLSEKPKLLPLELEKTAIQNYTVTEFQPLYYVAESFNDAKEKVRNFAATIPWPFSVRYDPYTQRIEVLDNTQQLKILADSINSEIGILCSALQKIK
The assay can be described thus: Cell Based Phenylalanine Flux Assay. Also noted: scale not given here. The following applies: A375 cells expressing human R408W PAH, 24 hrs with compound, 13C-Tyrosine by LC-MS, average where tested multiple times.

Regarding `O=C(CCc1ccc(F)cc1)N1CCc2[nH]cnc2C1c1nc2ccccc2[nH]1` (stereo not shown) [listing 1 of 2 here], where the note is “read-out: AC50”, the AC50 was > 5 µM.
Regarding `O=C(CCc1cccs1)N1CCc2[nH]cnc2C1c1nc2ccccc2[nH]1` (stereo not shown) [listing 1 of 2 here], the AC50 (read-out: AC50) is > 5 µM.
`O=C(Cc1noc2ccccc12)N1CCc2[nH]cnc2C1c1nc2ccccc2[nH]1` (stereo not shown) [listing 1 of 2 here]: under “read-out: AC50”, the half-maximal activity concentration (AC50) was > 5 µM.
On the same count and under the same terms, as for `O=C(CCc1nc2ccccc2o1)N1CCc2[nH]cnc2C1c1nc2ccccc2[nH]1` (stereo not shown) [listing 1 of 2 here], the figure is > 5 µM.
Same read-out and setting: to `Cc1nnc(CCC(=O)N2CCc3[nH]cnc3C2c2nc3ccc(Br)cc3[nH]2)s1` (stereo not shown) [listing 1 of 2 here] belongs > 5 µM; to `O=C(Cc1nccs1)N1CCc2[nH]cnc2C1c1nc2ccc(Cl)cc2[nH]1` (stereo not shown) [listing 1 of 2 here], > 5 µM; to `Cc1nnc(CCC(=O)N2CCc3[nH]cnc3C2c2nc3ccc(Cl)cc3[nH]2)s1` (stereo not shown) [listing 1 of 2 here], > 5 µM.
For `O=C(c1c(C(F)(F)F)nn2ccccc12)N1CCc2[nH]cnc2C1c1nc2ccccc2s1` (stereo not shown), the AC50 entry is reported as “E, E”.
Turning to `NC(=O)c1nc(-c2ccccn2)oc1C(=O)N1CCc2[nH]cnc2C1c1nc2ccccc2s1` (stereo not shown), the AC50 result is on record as “E, E”.
With `Cc1nnc(C(=O)N2CCc3[nH]cnc3C2c2nc3ccccc3[nH]2)s1` (stereo not shown), the AC50 (read-out: AC50) was > 5 µM.
In the case of `O=C(c1nc2ccccc2s1)N1CCc2[nH]cnc2C1c1nc2ccccc2[nH]1` (stereo not shown), the AC50 (read-out: AC50) is > 5 µM.
Still for that read-out and setting: to `O=C(c1cnn2cc(Cl)ccc12)N1CCc2[nH]cnc2C1c1nc2ccccc2[nH]1` (stereo not shown) belongs > 5 µM.
Still for that read-out and setting: to `O=C(c1ccc2ncsc2c1)N1CCc2[nH]cnc2C1c1nc2ccccc2[nH]1` (stereo not shown) belongs > 5 µM.
For the compound `O=C(c1ncc[nH]1)N1CCc2[nH]cnc2C1c1nc2ccccc2[nH]1` (stereo not shown), the AC50 (read-out: AC50) is > 5 µM.
The same measure, in the same setting: as for `O=C(c1nncs1)N1CCc2[nH]cnc2C1c1nc2ccccc2[nH]1` (stereo not shown), the figure is > 5 µM.
On the same count and under the same terms, to `O=C(c1cncs1)N1CCc2[nH]cnc2C1c1nc2ccc(Cl)cc2[nH]1` (stereo not shown) belongs > 5 µM; to `O=C(c1nccs1)N1CCc2[nH]cnc2C1c1nc2ccc(F)cc2[nH]1` (stereo not shown), > 5 µM.
The same measure, in the same setting: as for `O=C(c1cnn2ccc(Br)cc12)N1CCc2[nH]cnc2C1c1nc2ccc(Cl)cc2[nH]1` (stereo not shown), the figure is 1 to 5 µM; as for `COc1cccc(C=CC(=O)N2CCc3[nH]cnc3C2c2nc3ccccc3[nH]2)c1` (stereo not shown), > 5 µM; as for `O=C(c1nc2ccccc2s1)N1CCc2[nH]cnc2C1c1nc2ccc(Cl)cc2[nH]1` (stereo not shown), > 5 µM.
For the compound `O=C(C1CC1)N1CCc2[nH]cnc2C1c1nc2ccc(F)cc2[nH]1` (stereo not shown), the AC50 (read-out: AC50) was > 5 µM.
Still for that read-out and setting: to `COc1cccc(CCC(=O)N2CCc3[nH]cnc3C2c2nc3ccccc3[nH]2)c1` (stereo not shown) belongs 1 to 5 µM; to `O=C(Cc1nccs1)N1CCc2[nH]cnc2C1c1nc2ccccc2[nH]1` (stereo not shown), 1 to 5 µM.
The same measure, in the same setting: as for `O=C(CCc1cccs1)N1CCc2[nH]cnc2C1c1nc2ccccc2[nH]1` (stereo not shown) [listing 2 of 2 here], the figure is 1 to 5 µM; as for `O=C(CCc1ccncc1)N1CCc2[nH]cnc2C1c1nc2ccccc2[nH]1` (stereo not shown), > 5 µM.
Turning to `O=C(CCC1CC1)N1CCc2[nH]cnc2C1c1nc2ccccc2[nH]1` (stereo not shown), the AC50 entry is on record as “E, E”.
Take `O=C(CCc1nc2ccccc2o1)N1CCc2[nH]cnc2C1c1nc2ccccc2[nH]1` (stereo not shown) [listing 2 of 2 here]: the AC50 (read-out: AC50) was 1 to 5 µM.
The same measure, in the same setting: as for `O=C(CCc1ccc(F)cc1)N1CCc2[nH]cnc2C1c1nc2ccccc2[nH]1` (stereo not shown) [listing 2 of 2 here], the figure is 1 to 5 µM; as for `Nc1nnc(CCC(=O)N2CCc3[nH]cnc3C2c2nc3ccccc3[nH]2)s1` (stereo not shown), > 5 µM.
Regarding `CC(=O)N1CCc2[nH]cnc2C1c1nc2ccccc2[nH]1` (stereo not shown), for the setting “read-out: AC50”, the half-maximal activity concentration (AC50) is > 5 µM.
Same read-out and setting: as for `Cc1nnc(CCC(=O)N2CCc3[nH]cnc3C2c2nc3ccccc3[nH]2)s1` (stereo not shown), the figure is 1 to 5 µM; as for `O=C(CCc1ccccc1)N1CCc2[nH]cnc2C1c1nc2ccccc2[nH]1` (stereo not shown), 1 to 5 µM; as for `O=C(Cc1noc2ccccc12)N1CCc2[nH]cnc2C1c1nc2ccccc2[nH]1` (stereo not shown) [listing 2 of 2 here], 1 to 5 µM.
Turning to `Cn1cc(C(C)(C)C(=O)N2CCc3[nH]cnc3C2c2nc3ccccc3s2)cn1` (stereo not shown), the AC50 result was “E, E”.
For `O=C(Cc1nccs1)N1CCc2[nH]cnc2C1c1nc2ccc(Br)cc2[nH]1` (stereo not shown), the AC50 (read-out: AC50) fell in the range of 1 to 5 µM.
Turning to `Cc1nnc(CCC(=O)N2CCc3[nH]cnc3C2c2nc3ccc(Br)cc3[nH]2)s1` (stereo not shown) [listing 2 of 2 here], under “read-out: AC50”, the AC50 fell in the range of 1 to 5 µM.
As to `CC(C)(C)CCC(=O)N1CCc2[nH]cnc2C1c1nc2ccc(Cl)cc2[nH]1` (stereo not shown), the AC50 (read-out: AC50) lay within 1 to 5 µM.
In the case of `Cc1nnc(CCC(=O)N2CCc3[nH]cnc3C2c2nc3ccc(Cl)cc3[nH]2)s1` (stereo not shown) [listing 2 of 2 here], the AC50 (read-out: AC50) lay in the range of 1 to 5 µM.
For `O=C(Cc1nccs1)N1CCc2[nH]cnc2C1c1nc2ccc(Cl)cc2[nH]1` (stereo not shown) [listing 2 of 2 here], for the setting “read-out: AC50”, the AC50 was in the range of 1 to 5 µM.
In the case of `O=C(CCc1nccs1)N1CCc2[nH]cnc2C1c1nc2ccc(F)cc2[nH]1` (stereo not shown), the AC50 (read-out: AC50) was in the range of 1 to 5 µM.

One may read the AC50 as the concentration giving half of the maximal activity seen.
